# Measurements from patent US20070219155A1, “TREATING TRINUCLEOTIDE REPEAT CONDITIONS” (priority 2006, published 2007).
# Tests used:
# human HD fibroblasts [1] = assay: Comet assay of H2O2-treated cells; conditions: cultured cells; FIG. 2F
# [2] = system: lymphoblast cell lines obtained from HD patients; conditions: FIG. 2D
# Description: DNA was purified from mouse tissues or cultured human fibroblasts (Kovtun et al., Hum. Mol. Genet., 13:3057-3068 (2004)) and used for PCR amplification of various microsatellites. CAG repeats at the hHD locus were amplified as described previously (Kovtun and McMurray, Nat. Genet., 27:407-411 (2001); Kovtun et al., Hum. Mol. Genet., 13:3057-3068 (2004)). […] One primer in each PCR amplification was labeled with FAM-6, and fluorescent products were analyzed using an ABI prism 3700 DNA analyzer instrument and the GeneMapper software v3 (Applied Biosystems).
# It was then determined whether peroxide treatment could directly lead to CAG expansion at the hHD locus in human HD fibroblasts in response to oxidative damage.
# human HD fibroblasts [3] = system: human HD fibroblasts
# Description: Human HD fibroblasts (Coriell Cell Repositories) were maintained in MEM medium with 20% FBS. Cells were grown until they reached 70% confluence and then treated with the indicated concentrations of H2O2 for 30 min. The cells were washed, the medium was replaced, and the cells were allowed to recover for three days before repeating the treatment one or two more times. After the third treatment, the cells were collected and DNA was isolated. CAG repeat sizing was performed as described below.
compound,measurement,setting,value
"OO [H2O2, hydrogen peroxide]",single strand breaks (comet assay),human HD fibroblasts [1],dose-dependent increase in single strand breaks
same,expansion of CAG repeats at the hHD locus,[2],expansions were observed
same,cell viability,human HD fibroblasts [3],did not affect cell viability
same,expansion of CAG repeats at the hHD locus,"human HD fibroblasts [3]; low (sub-lethal) doses, 30 min treatment repeated up to three times, FIG. 2C",uniformly led to expansion of CAG at intermediate or disease-length alleles
same,expansion of GAA repeats (chromosome 5 locus),"human HD fibroblasts [3]; same peroxide-treated cells, FIG. 2E",expansion was not detected
